Results taken from patent US20220340633A1 (Adepthera LLC, priority 2016, published 2022).
Where two headings read alike, the source gives them in different places. Positions of bridges follow the written chain, without caps; N, C: chain ends. Non-standard residues stand in square brackets, D forms with d. Residues, ends and D or L forms follow the SMILES beside them. *: point of attachment. Palmitoyl = CCCCCCCCCCCCCCCC(=O)*; AEEA = NCCOCCOCC(=O)O

What was measured:
CLR/RAMP1 receptor = CLR/RAMP1 receptor (Homo sapiens, UniProt O60894+Q16602); test: CLR/RAMP1 cAMP receptor activation assay (agonist); assay type: cell-based; parameters: host or cells: 1321N1 cells; conditions: % of positive control (β-CGRP)
Sequence of CLR/RAMP1 receptor (Q16602 23-461): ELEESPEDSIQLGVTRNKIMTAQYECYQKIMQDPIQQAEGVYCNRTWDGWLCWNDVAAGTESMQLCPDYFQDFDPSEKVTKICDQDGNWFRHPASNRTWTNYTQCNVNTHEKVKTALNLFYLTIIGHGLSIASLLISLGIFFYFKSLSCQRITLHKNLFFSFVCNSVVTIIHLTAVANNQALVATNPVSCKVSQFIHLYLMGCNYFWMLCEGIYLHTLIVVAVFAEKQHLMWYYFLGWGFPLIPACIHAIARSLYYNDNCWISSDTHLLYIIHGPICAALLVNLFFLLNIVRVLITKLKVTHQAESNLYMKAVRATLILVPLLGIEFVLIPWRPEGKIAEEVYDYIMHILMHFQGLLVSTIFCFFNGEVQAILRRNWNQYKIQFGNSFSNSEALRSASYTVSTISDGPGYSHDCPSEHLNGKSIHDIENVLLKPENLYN
Sequence of CLR/RAMP1 receptor (O60894 27-148): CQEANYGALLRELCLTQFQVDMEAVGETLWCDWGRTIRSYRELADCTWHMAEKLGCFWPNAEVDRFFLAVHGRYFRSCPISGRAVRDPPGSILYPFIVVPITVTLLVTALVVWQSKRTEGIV

CLR/RAMP2 receptor = target: T1, CLR/RAMP2 receptor (Homo sapiens, UniProt O60895+Q16602); test: CLR/RAMP2 arrestin receptor activation assay (agonist); assay type: cell-based; conditions: CHO-K1, read-out: CLR/RAMP 2 Max Activity % of positive control, CHO-K1 cells; % of positive control (ADM)
T1 construct: host or cells: CHO-K1 cells
T1 sequence (Q16602 23-461): as the sequence (Q16602 23-461) above
T1 sequence (O60895 43-175): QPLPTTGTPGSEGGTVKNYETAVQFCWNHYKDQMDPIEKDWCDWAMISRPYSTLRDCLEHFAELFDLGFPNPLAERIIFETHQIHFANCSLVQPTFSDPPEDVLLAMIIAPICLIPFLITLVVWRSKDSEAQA

[1] = 1321-N1, read-out: CLR/RAMP 1 Max Activity % of positive control, 1321N1 cells

Emax (CLR/RAMP1 receptor; 1321-N1, 1321N1 cells, read-out: CLR/RAMP 1 Max Activity % of positive control) [%] | Compound | Emax (CLR/RAMP1 receptor; [1]) [%] | Emax (CLR/RAMP2 receptor) [%]
 | CCCCCCCCCCCCCCCC(=O)NCCCC[C@H](NC(=O)COCCOCCN)C(=O)NCC(=O)N[C@H]1CSSC[C@@H](C(=O)N[C@H](C(=O)N[C@H](C(=O)N[C@@H](CCC(N)=O)C(=O)N[C@@H](CCCCN)C(=O)N[C@@H](CC(C)C)C(=O)N[C@@H](C)C(=O)N[C@@H](Cc2c[nH]cn2)C(=O)N[C@@H](CCC(N)=O)C(=O)N[C@H](C(=O)N[C@@H](Cc2ccc(O)cc2)C(=O)N[C@@H](CCC(N)=O)C(=O)N[C@@H](Cc2ccccc2)C(=O)N[C@H](C(=O)N[C@@H](CC(=O)O)C(=O)N[C@@H](CCCCN)C(=O)N[C@@H](CC(=O)O)C(=O)N[C@@H](CCCCN)C(=O)N[C@@H](CCC(N)=O)C(=O)N[C@@H](CC(=O)O)C(=O)N[C@@H](CO)C(=O)N[C@@H](C)C(=O)N2CCC[C@H]2C(=O)N[C@H](C(=O)N[C@@H](CC(=O)O)C(=O)N2CCC[C@H]2C(=O)N[C@@H](CO)C(=O)N[C@@H](CO)C(=O)N2CCC[C@H]2C(=O)N[C@@H](Cc2c[nH]cn2)C(=O)N[C@@H](CO)C(=O)N[C@@H](Cc2ccc(O)cc2)C(N)=O)C(C)C)[C@@H](C)O)[C@@H](C)CC)C(C)C)[C@@H](C)O)NC(=O)[C@H]([C@@H](C)O)NC(=O)CNC(=O)[C@H](Cc2ccccc2)NC(=O)[C@H](CCCNC(=N)N)NC1=O [SEQ ID NO: 51] (H-[AEEA]K(Palmitoyl)GCRFGTCTVQKLAHQIYQFTDKDKQDSAPVDPSSPHSY-NH2; disulfide 4-9) | 65 | 107
100 | CSCC[C@H](NC(=O)CNC(=O)CNC(=O)[C@H](CO)NC(=O)[C@H](CCCNC(=N)N)NC(=O)[C@H](CO)NC(=O)[C@H](CC(C)C)NC(=O)[C@H](CC(C)C)NC(=O)CNC(=O)[C@H](C)NC(=O)[C@H](CC(C)C)NC(=O)[C@H](CCCNC(=N)N)NC(=O)[C@H](Cc1c[nH]cn1)NC(=O)[C@@H](NC(=O)[C@@H](NC(=O)[C@@H]1CSSC[C@H](NC(=O)[C@H](C)N)C(=O)N[C@@H](CC(N)=O)C(=O)N[C@@H]([C@@H](C)O)C(=O)N[C@@H](C)C(=O)N[C@@H]([C@@H](C)O)C(=O)N1)C(C)C)[C@@H](C)O)C(=O)N[C@H](C(=O)N[C@@H](CCCCN)C(=O)N[C@@H](CO)C(=O)N[C@@H](CC(N)=O)C(=O)N[C@@H](Cc1ccccc1)C(=O)N[C@H](C(=O)N1CCC[C@H]1C(=O)N[C@H](C(=O)N[C@@H](CC(N)=O)C(=O)N[C@H](C(=O)NCC(=O)N[C@@H](CO)C(=O)N[C@@H](CCCCN)C(=O)N[C@@H](C)C(=O)N[C@@H](Cc1ccccc1)C(N)=O)C(C)C)[C@@H](C)O)C(C)C)C(C)C [Wild type CGRP-β positive, reference compound] |  | 
 | CCCCCCCCCCCCCCCC(=O)NCCCC[C@H](NC(=O)[C@@H](NC(=O)COCCOCCN)[C@@H](C)O)C(=O)N[C@@H](CCCCN)C(=O)N[C@H](C(=O)N[C@@H](CC(C)C)C(=O)N[C@@H](CCCNC(=N)N)C(=O)N[C@H](C(=O)NCC(=O)N[C@H]1CSSC[C@@H](C(=O)N[C@H](C(=O)N[C@H](C(=O)N[C@@H](CCC(N)=O)C(=O)N[C@@H](CCCCN)C(=O)N[C@@H](CC(C)C)C(=O)N[C@@H](C)C(=O)N[C@@H](Cc2c[nH]cn2)C(=O)N[C@@H](CCC(N)=O)C(=O)N[C@H](C(=O)N[C@@H](Cc2ccc(O)cc2)C(=O)N[C@@H](CCC(N)=O)C(=O)N[C@@H](Cc2ccccc2)C(=O)N[C@H](C(=O)N[C@@H](CC(=O)O)C(=O)N[C@@H](CCCCN)C(=O)N[C@@H](CC(=O)O)C(=O)N[C@@H](CCCCN)C(=O)N[C@@H](CC(=O)O)C(=O)N[C@@H](CC(N)=O)C(=O)N[C@H](C(=O)N[C@@H](C)C(=O)N2CCC[C@H]2C(=O)N[C@H](C(=O)N[C@@H](CC(=O)O)C(=O)N2CCC[C@H]2C(=O)N[C@@H](CO)C(=O)N[C@@H](CO)C(=O)N2CCC[C@H]2C(=O)N[C@@H](Cc2c[nH]cn2)C(=O)N[C@@H](CO)C(=O)N[C@@H](Cc2ccc(O)cc2)C(N)=O)C(C)C)C(C)C)[C@@H](C)O)[C@@H](C)CC)C(C)C)[C@@H](C)O)NC(=O)[C@H]([C@@H](C)O)NC(=O)CNC(=O)[C@H](Cc2ccccc2)NC(=O)[C@H](CCCNC(=N)N)NC1=O)[C@@H](C)O)[C@@H](C)O [SEQ ID NO: 42] | 56 | 76
 | CSCC[C@H](NC(=O)[C@H](CC(C)C)NC(=O)[C@H](CCC(N)=O)NC(=O)[C@H](Cc1c[nH]c2ccccc12)NC(=O)[C@H](CC(C)C)NC(=O)[C@H](Cc1c[nH]cn1)NC(=O)[C@H](C)NC(=O)[C@H](CC(C)C)NC(=O)[C@H](CCCCN)NC(=O)[C@H](CCC(N)=O)NC(=O)[C@@H](NC(=O)[C@@H](NC(=O)[C@@H]1CSSC[C@H](NC(=O)CNC(=O)[C@@H](NC(C)=O)C(C)C)C(=O)N[C@@H](CCCNC(=N)N)C(=O)N[C@@H](Cc2ccccc2)C(=O)NCC(=O)N[C@@H]([C@@H](C)O)C(=O)N1)[C@@H](C)O)C(C)C)C(=O)NCC(=O)N1CCC[C@H]1C(=O)N[C@@H](C)C(=O)NCC(=O)N[C@@H](CCCNC(=N)N)C(=O)N[C@@H](CCC(N)=O)C(=O)N[C@@H](CC(=O)O)C(=O)N[C@@H](CO)C(=O)N[C@@H](C)C(=O)N1CCC[C@H]1C(=O)N[C@H](C(=O)N[C@@H](CC(=O)O)C(=O)N1CCC[C@H]1C(=O)N[C@@H](CO)C(=O)N[C@@H](CO)C(=O)N1CCC[C@H]1C(=O)N[C@@H](Cc1c[nH]cn1)C(=O)N[C@@H](CO)C(=O)N[C@@H](Cc1ccc(O)cc1)C(N)=O)C(C)C [SEQ ID NO: 58] | 0 | 
 | CCCCCCCCCCCCCCCC(=O)NCCCC[C@H](NC(=O)COCCOCCN)C(=O)NCC(=O)N[C@H]1CSSC[C@@H](C(=O)N[C@H](C(=O)N[C@H](C(=O)N[C@@H](CCC(N)=O)C(=O)N[C@@H](CCCCN)C(=O)N[C@@H](CC(C)C)C(=O)N[C@@H](C)C(=O)N[C@@H](Cc2c[nH]cn2)C(=O)N[C@@H](CCC(N)=O)C(=O)N[C@H](C(=O)N[C@@H](Cc2ccc(O)cc2)C(=O)N[C@@H](CCC(N)=O)C(=O)N[C@@H](Cc2ccccc2)C(=O)N[C@H](C(=O)N[C@@H](CC(=O)O)C(=O)N[C@@H](CCCCN)C(=O)NCC(=O)N[C@@H](CCCNC(=N)N)C(=O)N[C@@H](CCC(N)=O)C(=O)N[C@@H](CC(=O)O)C(=O)N[C@@H](CO)C(=O)N[C@@H](C)C(=O)N2CCC[C@H]2C(=O)N[C@H](C(=O)N[C@@H](CC(=O)O)C(=O)N2CCC[C@H]2C(=O)N[C@@H](CO)C(=O)N[C@@H](CO)C(=O)N2CCC[C@H]2C(=O)N[C@@H](Cc2c[nH]cn2)C(=O)N[C@@H](CO)C(=O)N[C@@H](Cc2ccc(O)cc2)C(N)=O)C(C)C)[C@@H](C)O)[C@@H](C)CC)C(C)C)[C@@H](C)O)NC(=O)[C@H]([C@@H](C)O)NC(=O)CNC(=O)[C@H](Cc2ccccc2)NC(=O)[C@H](CCCNC(=N)N)NC1=O [SEQ ID NO: 68] |  | 70
